pIC50: −log10 of the molar value.
How the values were obtained:
[1] = Inhibition of HIV reverse transcriptase; set-up: species or system Human immunodeficiency virus
[2] = biological target: Protease (Human immunodeficiency virus 1, UniProt Q9YQ12); assay: Inhibition of HIV1 protease
[3] = Inhibition of HIV protease; set-up: species or system Human immunodeficiency virus

Protease, sequence (Q9YQ12 whole entry): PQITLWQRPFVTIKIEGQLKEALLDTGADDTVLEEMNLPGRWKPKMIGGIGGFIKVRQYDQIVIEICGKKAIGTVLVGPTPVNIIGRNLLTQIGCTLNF

pIC50 [1] | Compound | further results
8.30 | Cc1cc(C)c(-n2nnnc2SCC(=O)Nc2ccccc2Cl)c(C)c1 | –
7.30 | CCOC(=O)Cc1nnc(NC(=O)[C@@H](CC)Sc2nnnn2-c2ccccc2)s1 | –
> 4.00 | C=CCn1c(CSc2nc3ccccc3s2)nnc1SCC(=O)NCc1cccnc1 | –
– | Cc1c(O)cccc1C(=O)N[C@@H](Cc1ccccc1)[C@H](O)CN(CC(C)C)S(=O)(=O)c1ccc2ncsc2c1 | pIC50 [2]: > 8.00
– | CC(C)(C)OC(=O)N[C@@H](Cc1ccccc1)[C@@H](O)[C@@]1(Cc2ccccc2)NC=C([C@H]2c3ccccc3C[C@@H]2O)C1=O | pIC50 [3]: 7.92
7.49 | CC(C)n1nc(COC(N)=O)c(Cc2ccncc2)c1Sc1cc(Cl)cc(Br)c1 | –

— ChEMBL document CHEMBL1156694, “In silico screening of HIV-1 non-nucleoside reverse transcriptase and protease inhibitors” (Eur J Med Chem, 2008)
